# Measured values: patent US7312248B2, “Control of parasites in animals by the use of novel trifluoromethanesulfonanilide oxime ether derivatives” (Schering-Plough Animal Health Corporation, priority 2004, dated 2007)
# Read-outs that look alike come from different tables or passages of the source.
# What was measured:
# [1] = system: Haemonchus contortus; test: Haemonchus contortus larvacidal (larval development) assay; assay type: in vivo; conditions: 144 h, read-out: Haemonchus contortus LD99
# Procedure: a) Haemonchus Contortus Larvacidal Assay:
# The effect of compounds on larval development was determined in the assay described by Gill et al. (1995, International Journal of Parasitology 25:463-470). Briefly, in this assay, nematode eggs were applied to the surface of an agar matrix containing the test compound and then allowed to develop through to the L3, infective stage (6 days). The wells for each dilution of every compound (from highest to lowest concentration) were inspected to determine the well number corresponding to the lowest concentration at which development was inhibited in 99% of the nematode larvae present (LD99). Because well numbers correspond to a two-fold serial dilution of each compound, a titre (dilution factor) is generated as 2^n−1, where n is the well number. By dividing the highest concentration tested by the titre an LD99 value can be obtained, representing the concentration required to inhibit development in 99% of the nematode larvae present. The compounds supplied as solid and viscous liquids were dissolved in DMSO. Twelve serial one-half dilutions in DMSO solution were prepared from the stock solution, each of which was then diluted ⅕ with water. Aliquots (10 μl) of each dilution were transferred to the bioassay plates to give a final concentration range of 0.024 to 50 μg/ml.
# [2] = system: cat flea (Ctenocephalides felis); test: whole plant or invertebrate; assay type: in vivo; conditions: Ctenocephalides felis
# Summary of the method: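 Single-dose screen at 1.26 μg/cm^2: acetone solution dried for 24 h on a Coatasil-treated 159 mm^2 flask base, then 15 adult cat fleas aged 3-7 days per flask, four or more replicates, acetone control. Percent dead, meaning not moving or unable to right themselves, recorded after 8, 24 and/or 48 h at 25 °C and 75% RH.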
# [3] = 8 h, read-out: C. felis Mortality (%) 8 h, 8 h, Laboratory 1 A data
# [4] = 24 h, read-out: C. felis Mortality (%) 24 h, 24 h, Laboratory 1 A data
# [5] = 8 h, read-out: C. felis Mortality (%) 8 h, 8 h, Laboratory 2 B data
# [6] = 24 h, read-out: C. felis Mortality (%) 24 h, 24 h, Laboratory 2 B data
# [7] = lowest concentration inhibiting development in 99% of larvae, eggs to L3, 6 days, range 0.024 to 50 μg/ml
# [8] = 24 h, read-out: Ctenocephalides felis Mortality (%) 24 h
# [9] = 8 h, read-out: Ctenocephalides felis Mortality (%) 8 h
SMILES,IC99 [1] [µg/mL],"mortality at 1.26 µg/cm2, 1.26 µg/cm2 [2, 3] [%]",also measured
"C/C(=N\OCc1cc(C(F)(F)F)ccc1C(F)(F)F)c1cc(Cl)ccc1NS(=O)(=O)C(F)(F)F [Compound 120, N-{2-[1-(2,5-bistrifluoromethylbenzyloxyimino)ethyl]-4-chlorophenyl}trifluoromethanesulfonamide]",0.5,2,
O=S(=O)(Nc1ccc(Cl)cc1/C(=N/OCc1ccc(Cl)cc1Cl)c1ccccc1)C(F)(F)F [Compound 61],1.7,17,
CC/C(=N\OCc1ccc(C(C)(C)C)cc1)c1cc(Cl)ccc1NS(=O)(=O)C(F)(F)F [Compound 5],3.3,8,
C/C(=N\Oc1ccc(Br)cc1)c1cc(Cl)ccc1NS(=O)(=O)C(F)(F)F [Compound 137],0.4,,"mortality at 1.26 µg/cm2, 1.26 µg/cm2 [2, 4]: 91%"
C/C(=N\OCc1ccc(C(F)(F)F)cc1C(F)(F)F)c1cc(F)ccc1NS(=O)(=O)C(F)(F)F [Compound 121],0.6,3,
CC/C(=N\OCc1cc(Br)cc(Br)c1)c1cc(Cl)ccc1NS(=O)(=O)C(F)(F)F [Compound 109],2.8,3,
C/C(=N\OCc1ccc(Cl)cc1)c1cc(Cl)ccc1NS(=O)(=O)C(F)(F)F [Compound 16],1.3,,"mortality at 1.26 µg/cm2, 1.26 µg/cm2 [2, 5]: 90%; mortality at 1.26 µg/cm2, 1.26 µg/cm2 [2, 6]: 100%"
"C/C(=N\OCc1ccc(C(F)(F)F)cc1C(F)(F)F)c1cc(Cl)ccc1NS(=O)(=O)C(F)(F)F [Compound 2, N-{2-[1-(2,4-bistrifluoromethylbenzyloxyimino)ethyl]-4-chlorophenyl}trifluoromethanesulfonamide]",0.1,2,
"O=S(=O)(Nc1ccc(Cl)cc1/C(=N/OCc1ccc(Cl)c(Cl)c1)c1ccccc1)C(F)(F)F [Compound 87, N-{4-chloro-2-[(3,4-dichlorobenzyloxyimino)phenylmethyl]phenyl}trifluoromethanesulfonamide]",1.3,5,
CCC/C(=N\OCc1ccc(C(F)(F)F)cc1C(F)(F)F)c1cc(Cl)ccc1NS(=O)(=O)C(F)(F)F [Compound 98],1.4,79,
CC/C(=N\OCc1c(F)c(F)c(F)c(F)c1F)c1cc(Cl)ccc1NS(=O)(=O)C(F)(F)F [Compound 77],2.5,3,
O=S(=O)(Nc1ccc(Cl)cc1/C(=N/OCc1ccc(C(F)(F)F)cc1C(F)(F)F)c1ccccc1)C(F)(F)F [Compound 78],1.8,21,
"O=S(=O)(Nc1ccc(Cl)cc1/C=N/OCc1ccc(C(F)(F)F)cc1C(F)(F)F)C(F)(F)F [Compound 65, N-{2-[(2,4-bistrifluoromethylbenzyloxyimino)methyl]-4-chlorophenyl}trifluoromethanesulfonamide]",0.3,10,
CC/C(=N\OCc1ccc(C#N)cc1)c1cc(Cl)ccc1NS(=O)(=O)C(F)(F)F [Compound 91],13,,"mortality at 1.26 µg/cm2, 1.26 µg/cm2 [2, 4]: 67%"
"O=S(=O)(Nc1ccc(Cl)cc1-c1cc(-c2ccc(F)cc2F)on1)C(F)(F)F [Compound 231, N-{4-chloro-2-[5-(2,4-difluorophenyl)isoxazol-3-yl]phenyl}trifluoromethanesulfonamide]",,,"IC99 [1, 7]: 0.6 µg/mL; mortality at 1.26 µg/cm2 [2, 8]: 7%"
CCC/C(=N\OCc1ccc(C(F)(F)F)cc1)c1cc(Cl)ccc1NS(=O)(=O)C(F)(F)F [Compound 92],1.6,36,
O=S(=O)(Nc1ccc(Cl)cc1/C=N/OCc1ccc(Br)cc1)C(F)(F)F [Compound 96],0.7,,"mortality at 1.26 µg/cm2, 1.26 µg/cm2 [2, 4]: 21%"
"CC(C)/C(=N\OCc1ccc(C(F)(F)F)cc1C(F)(F)F)c1cc(Cl)ccc1NS(=O)(=O)C(F)(F)F [Compound 116, N-{2-[1-(2,4-bistrifluoromethylbenzyloxyimino)-2-methylpropyl]-4-chlorophenyl}trifluoromethanesulfonamide]",0.9,10,

SMILES,IC99 [1] [µg/mL],"mortality at 1.26 µg/cm2, 1.26 µg/cm2 [2, 3] [%]",also measured
CC/C(=N\Oc1cccc(C(F)(F)F)c1)c1cc(Cl)ccc1NS(=O)(=O)C(F)(F)F [Compound 133],0.9,,"mortality at 1.26 µg/cm2, 1.26 µg/cm2 [2, 4]: 71%"
O=S(=O)(Nc1ccc(Cl)cc1-c1cc(-c2ccc(F)cc2)on1)C(F)(F)F [Compound 228],,,"IC99 [1, 7]: 0.4 µg/mL; mortality at 1.26 µg/cm2 [2, 9]: 3%; mortality at 1.26 µg/cm2 [2, 8]: 3%"
CC/C(=N\OC/C=C/c1ccccc1)c1cc(Cl)ccc1NS(=O)(=O)C(F)(F)F [Compound 85],1.6,6,
CC(C)/C(=N\OCc1ccc(C(F)(F)F)cc1)c1cc(Cl)ccc1NS(=O)(=O)C(F)(F)F [Compound 108],1.3,12,
"O=S(=O)(Nc1ccc(Cl)cc1-c1cc(-c2ccc(Cl)cc2Cl)on1)C(F)(F)F [Compound 229, N-{4-chloro-2-[5-(2,4-dichlorophenyl)isoxazol-3-yl]phenyl}trifluoromethanesulfonamide]",,,"IC99 [1, 7]: 0.09 µg/mL; mortality at 1.26 µg/cm2 [2, 9]: 2%; mortality at 1.26 µg/cm2 [2, 8]: 7%"
CC/C(=N\Oc1ccc(C#N)cc1)c1cc(Cl)ccc1NS(=O)(=O)C(F)(F)F [Compound 136],2.5,,"mortality at 1.26 µg/cm2, 1.26 µg/cm2 [2, 4]: 74%"
O=S(=O)(Nc1ccc(Cl)cc1-c1cc(-c2ccc(Cl)cc2)on1)C(F)(F)F [Compound 227],,,"IC99 [1, 7]: 0.1 µg/mL; mortality at 1.26 µg/cm2 [2, 9]: 7%; mortality at 1.26 µg/cm2 [2, 8]: 9%"
CC/C(=N\OCc1ccc(F)cc1F)c1cc(Cl)ccc1NS(=O)(=O)C(F)(F)F [Compound 84],3.3,95,
C/C(=N\OCC=C(Cl)Cl)c1cc(Cl)ccc1NS(=O)(=O)C(F)(F)F [Compound 38],0.9,8,
C/C(=N\OCc1ccc(Cl)cc1Cl)c1cc(Cl)ccc1NS(=O)(=O)C(F)(F)F [Compound 21],0.7,5,
CCC/C(=N\OCC1CCCCC1)c1cc(Cl)ccc1NS(=O)(=O)C(F)(F)F [Compound 111],5,,"mortality at 1.26 µg/cm2, 1.26 µg/cm2 [2, 5]: 9%; mortality at 1.26 µg/cm2, 1.26 µg/cm2 [2, 6]: 70%"
O=S(=O)(Nc1ccc(Cl)cc1-c1cc(-c2ccc(Cl)c(Cl)c2)on1)C(F)(F)F [Compound 230],,,"IC99 [1, 7]: 0.4 µg/mL; mortality at 1.26 µg/cm2 [2, 9]: 8%; mortality at 1.26 µg/cm2 [2, 8]: 15%"
C/C(=N\OCc1ccc(C(F)(F)F)cc1)c1cc(Cl)ccc1NS(=O)(=O)C(F)(F)F [Compound 14],0.9,2,
C/C(=N\OCc1ccc(C#N)cc1)c1cc(Cl)ccc1NS(=O)(=O)C(F)(F)F [Compound 73],5,1,
"O=S(=O)(Nc1ccc(Cl)cc1/C=N/OCc1ccc(Cl)c(Cl)c1)C(F)(F)F [Compound 97, N-{4-chloro-2-[(3,4-dichlorobenzyloxyimino)methyl]phenyl}trifluoromethanesulfonamide]",0.6,,"mortality at 1.26 µg/cm2, 1.26 µg/cm2 [2, 4]: 42%"
C/C(=N\Oc1ccccc1)c1cc(Cl)ccc1NS(=O)(=O)C(F)(F)F [Compound 125],5.5,6,
O=S(=O)(Nc1ccc(Cl)cc1/C=N/OCc1ccc(Cl)cc1Cl)C(F)(F)F [Compound 67],0.9,12,
